From patent publication US20250034264A1, “REGULATING T CELL IMMUNE RESPONSE THROUGH IGF-I RECEPTOR (IGF-1R)” (The Regents of the University of Michigan, priority 2021, published 2025)

Tests used:
CD34+ fibrocytes = test: MHC II, CD80, CD86, PD-L1 expression in cultured fibrocytes (RT-qPCR, flow cytometry); assay type: cell-based, human
Text: Fibrocyte and T cell isolation and cultivation. Peripheral blood mononuclear cells (PBMCs) were obtained from the venous circulation of clinic patients with GD, TAO or from healthy donors after obtaining informed consent. PBMCs were also obtained from Red Cross donor plasmapheresis filters. They were isolated by Ficoll-Histopaque (Sigma-Aldrich, St. Louis, MO) density gradient centrifugation. Fibrocytes were cultivated as described (Bucala, R, et al., (1994) Mol Med 1, 71-81, incorporated herein by reference in its entirety) except that culture substrata remained uncoated with fibronectin, as previously described (Douglas, R. S., et al. (2010) The Journal of clinical endocrinology and metabolism 95, 430-438). Isolated PBMCs (1×10^6-1×107) were inoculated in six-well plates covered with DMEM containing 10% FBS and incubated in 10-14 days. Adherent monolayers (<5% of the starting population) were washed with PBS and detached using accutase (Millipore) treatment, or mechanical scraping following accutase treatment. Culture purity was routinely confirmed by FACS analysis to be >90% fibrocytes by confirming the CD31^−CD45^+CD34^+CXCR4^+Col I^+TSFR^high phenotype.
Invariably, a small population of tightly adherent T cells were found in the fibrocyte cultures, consistent with the previous findings. Culture viability was routinely verified to be >90%. CD4^+ T cells were enriched using the CD4 isolation cocktail (Cat #0.130-096-533, Miltenyi Biotec, San Diego, CA) followed by negative selection using a magnetic column (Cat #0.130-042-401) according to manufacturer's protocol. Fibrocytes and isolated T cells were cultured and remained untreated or were incubated with human IgG isotype control (5 μg/ml) or teprotumumab (50 μg/mL) for 7 to 9 days. Single cell suspensions were stained with anti-human CD4, CD3, CD34, MHC-2, CD80, CD86, and PD-L1 (BD Biosciences) for 30 min, rinsed and fixed with CytoPerm/CytoFix (BD). They were then stained with anti-human INFγ and IL-17A for 20 min, rinsed, and subjected to the flow cytometry analysis. Gated CD34^+CXCR4^+ fibrocytes and CD4^+CD3^+ T cells were analyzed using quadrant settings based on negative isotype staining.
In vitro studies of CD34^+ fibrocytes and T cells PBMC and GD-OF monolayers were treated in vitro with human IgG isotype control (5 μg/ml), teprotumumab (50 μg/mL), H7 (5 μg/mL), linsitinib (1 μM), bTSH (5 mIU/mL), M22 (1 μg/mL), or IGF-1 (10 nM) for the intervals indicted in the figure legends in a 37° C., 5% CO2, humidified incubator until confluent. Brefeldin A (0.66 μl/ml), (Golgi Stop™, BD Biosciences), phorbol 12-myristate 13-acetate (PMA) (50 ng/ml) and ionomycin (1 μg/mL) were added for 5 h. Cells were rinsed with flow cytometry buffer (1×PBS, 0.5% BSA, 0.1% sodium azide) and stained with the relevant monoclonal antibodies.
(§1) Real-time PCR Confluent fibrocyte and GD-OF cultures were incubated with bTSH (5 mIU/mL), teprotumumab (50 μg/mL) or linsitinib (1 μM) for the time intervals indicated, washed with PBS and RNA was extracted with the Aurum Total RNA Mini Kit (cat. #732-6820, Bio-Rad, Hercules, CA). Cellular RNA (2 μg) was reverse transcribed using QuantiTect Reverse Transcription kit (cat. #205314, Qiagen (Germantown, MD) and real-time PCR was performed using an Applied Biosystems instrument with QuantiTect SYBR Green PCR kit (cat. no. 204143; Qiagen, Frederick, MD). Primer sequences were as follows.

GD-OF = test: IL-23p19 and IL-12p35 mRNA expression, real-time PCR; assay type: cell-based, human
Protocol: FIGS. 10A-10F are graphs showing the divergent effect of teprotumumab on bTSH induced IL-23p19 and IL-12p35 expression on fibrocytes and GD-OF. Rinsed fibrocyte and GD-OF monolayers were incubated with or without 50 μg/ml teprotumumab (FIGS. 10A and 10B) or 1 μM linsitinib (FIGS. 10C and 10D) and human Isotype IgG for 7-9 d, and bTSH (5 mIU/mL) was added for 6 h. Harvested RNA was reverse transcribed and isolated cDNA was subjected to quantitative real-time PCR for IL-23p19 and IL-12p35 mRNA levels. Values were normalized to their respective GAPDH levels and are expressed as the mean±SD of three independent determinations. Experiments were repeated three times. FIGS. 10E and 10F are graphs showing the levels of IL-23 protein when rinsed fibrocyte and GD-OF monolayers were incubated with or without 50 μg/ml teprotumumab. **, p<0.01; ***. P<0.001.
FIGS. 15A-15C are dose-response curves of teprotumumab effects on IL-6 expression/induction by bTSH (FIG. 15A); HAS2 expression/induction by bTSH (FIG. 15B); IL-12p35 expression/induction by bTSH (FIG. 15C). Following indicated treatments, cellular RNA was harvest from rinsed GD-OF cell layers, reversed transcribed and subjected to real-time PCR. Values were normalized to their respective GAPDH levels.
Graves' disease-orbital fibroblast (GD-OF) preparation and cultivtion GD-OF were isolated from orbital adipose/connective tissues removed during surgical orbital decompression surgery, as described ((Smith, T. J., et al., (2002) The Journal of clinical endocrinology and metabolism 87, 385-392). While the fraction of CD34^+ OF comprising GD-OF strains vary somewhat, the ratios of CD34^+/CD34^− OF are usually 50:50 in the early passages utilized in these studies (passages 2-11). Pure CD34^+ OF and CD34^− OF subsets were generated by staining for 30 m at 4° C. with fluorescein isothiocyanate-conjugated […] CD34 or its isotype control followed by cytometric cell sorting using a FACSAria III (BD Biosciences) instrument. Cells were sorted under sterile conditions into either CD34^+ OF, and CD34 OF subsets which were then re-cultured and treated without or with bTSH (5 mU/mL) or the other test compounds, as indicated, for 6 hrs, as indicated.
as §1

[1] = fibrocytes from GD patients (n=28), 50 μg/mL, 9 d
[2] = teprotumumab 50 μg/mL, time-dependent over 9 d treatment
[3] = teprotumumab 50 μg/ml or linsitinib 1 μM, 7-9 d

Substance: teprotumumab
- effect on MHC II, CD80, CD86, PD-L1 expression, teprotumumab compared with TSHR inhibitor ML224 (CD34+ fibrocytes; 9 d, single agents and in combination): effective
- surface proteins MHC II, CD80, CD86, PD-L1 at 9 days (CD34+ fibrocytes; 9 days): uniformly reduced to levels of detectability or below
- induction of MHC II, CD80, CD86, PD-L1 surface proteins (CD34+ fibrocytes; bTSH-treated fibrocytes): blocked
- frequency of CD34+ fibrocytes (CD34+ fibrocytes; cultures from GD patients and healthy controls): unaffected
- reduction in level of CD80 cell-surface protein (CD34+ fibrocytes; [1]): 52%
- reduction in level of CD86 cell-surface protein (CD34+ fibrocytes; [1]): 49%
- reduction in level of MHC II cell-surface protein (CD34+ fibrocytes; [1]): 57%
- reduction in level of PD-L1 cell-surface protein (CD34+ fibrocytes; [1]): 47%
- induction of MHC II, CD80, CD86, PD-L1 mRNA by bTSH and M22 (CD34+ fibrocytes; teprotumumab 50 μg/mL, 1H7 5 μg/mL, linsitinib 1 μM): blocked
- protein levels of MHC II, CD80, CD86, PD-L1 (CD34+ fibrocytes; [2]): substantially reduced
- steady-state mRNA levels of MHC II, CD80, CD86, PD-L1 (CD34+ fibrocytes; [2]): substantially reduced
- dose dependence of effects (FIG. 15: IL-6, HAS2, IL-12p35 expression/induction by bTSH) (GD-OF; dose-response curves, GD-OF): dose-dependent
- IL-12p35 expression, basal and induction by bTSH (GD-OF; [3]): enhances
- IL-23p19 expression, basal and induction by bTSH (GD-OF; [3]): inhibited
